Results as given in patent US20090131520A1, “Lipid metabolism Improving Composition” (priority 2005, published 2009).

How the values were obtained:
apolipoprotein B (B100) = test: Secretion of apolipoprotein B (B100) from HepG2 cells into the test medium, ELISA; type: cell-based, human; conditions: 150 μM, 24 hr culture, FIG. 1
Description: (§1) A test medium containing 150 μM of linolic acid menthol ester (1% BSA-DMEM) was provided. In this test medium, human liver-derived HepG2 cells were cultured for 24 hr, and the cells and the medium were collected.
(§2) Evaluation 2: Test on Secretion (Inhibition/Enhancement) of Apolipoproteins A and B
(§3) The amount of apolipoprotein A (A1) and apolipoprotein B (B100) secreted from the human liver-derived HepG2 cells into the test medium was measured by the ELISA method.

apolipoprotein A (A1) = test: Secretion of apolipoprotein A (A1) from HepG2 cells into the test medium, ELISA; type: cell-based, human; conditions: 150 μM, 24 hr culture, FIG. 2
Description: as §1, §2, §3

For `CCCCC/C=C\C/C=C\CCCCCCCC(=O)OC1CC(C)CCC1C(C)C` (centres unmarked) [linolic acid menthol ester], the “amount of apolipoprotein B (B100) secreted” value (apolipoprotein B (B100)) was “inhibit the secretion of apolipoprotein B (B100)” and the “amount of apolipoprotein A (A1) secreted” value (apolipoprotein A (A1)) was “significantly enhance the secretion of apolipoprotein A (A1)”.
